Reference: patent publication US20240150322A1, “CDK9 Inhibitors” (Biolexis Therapeutics, Inc., priority 2022, published 2024)
Where two headings read alike, the source gives them in different places.

Key:
[1] = Pharmacokinetic study in rat; conditions: in vivo, po
[2] = Pharmacokinetic study in male Beagle dogs; type: in vivo; conditions: dog, plasma; for Tmax: read-out: Tmax (hours), median (min-max); for Vd: male, Beagle, iv, 1 mg/kg
Protocol: Last time of mean concentrations was 24 hours following intravenous bolus injection.

[3] = tested on: pCDK9, pSer2, N-MYC, C-MYC and MCL-1; experiment: Target modulation in prostate cancer patient samples; type: cell-based; conditions: newly diagnosed and resistant prostate cancer patient samples
[4] = Pharmacokinetic study in mice; conditions: mouse, in vivo, po
[5] = tested on: CDK9 downstream targets in 22Rv1 and LASCPC-01; experiment: Western blot analysis of nuclear extract; type: cell-based
Protocol: Cytoplasmic and nuclear extracts from these cells were separated using NE-PER Nuclear and Cytoplasmic Extraction Kit (ThermoFisher). […] Relative protein expression of CDK9, N-Myc and other downstream signaling was quantified by GraphPad Prism 8 and ImageJ Software RT-PCR Gene.
Then cells were harvested with PBS and fixed with ice-cold 70% ethanol at −20° C. overnight. The cells were then washed with ice-cold PBS 2× and then re-suspended in DAPI staining buffer and incubated in the dark for 30 minutes. The cells were analyzed using BD Fortessa flow cytometer and cell cycle distribution was analyzed using FlowJo and GraphPad Prism 8 Software.

[6] = tested on: Prostate cancer cells; experiment: Colony formation assay 2; type: cell-based; conditions: 0.123 to 10 μM for 72 hours
[7] = molecular target: PRKD3 (Homo sapiens, UniProt O94806); experiment: scanMAX panel and Kd follow-up; type: binding
PRKD3, sequence (O94806 whole entry): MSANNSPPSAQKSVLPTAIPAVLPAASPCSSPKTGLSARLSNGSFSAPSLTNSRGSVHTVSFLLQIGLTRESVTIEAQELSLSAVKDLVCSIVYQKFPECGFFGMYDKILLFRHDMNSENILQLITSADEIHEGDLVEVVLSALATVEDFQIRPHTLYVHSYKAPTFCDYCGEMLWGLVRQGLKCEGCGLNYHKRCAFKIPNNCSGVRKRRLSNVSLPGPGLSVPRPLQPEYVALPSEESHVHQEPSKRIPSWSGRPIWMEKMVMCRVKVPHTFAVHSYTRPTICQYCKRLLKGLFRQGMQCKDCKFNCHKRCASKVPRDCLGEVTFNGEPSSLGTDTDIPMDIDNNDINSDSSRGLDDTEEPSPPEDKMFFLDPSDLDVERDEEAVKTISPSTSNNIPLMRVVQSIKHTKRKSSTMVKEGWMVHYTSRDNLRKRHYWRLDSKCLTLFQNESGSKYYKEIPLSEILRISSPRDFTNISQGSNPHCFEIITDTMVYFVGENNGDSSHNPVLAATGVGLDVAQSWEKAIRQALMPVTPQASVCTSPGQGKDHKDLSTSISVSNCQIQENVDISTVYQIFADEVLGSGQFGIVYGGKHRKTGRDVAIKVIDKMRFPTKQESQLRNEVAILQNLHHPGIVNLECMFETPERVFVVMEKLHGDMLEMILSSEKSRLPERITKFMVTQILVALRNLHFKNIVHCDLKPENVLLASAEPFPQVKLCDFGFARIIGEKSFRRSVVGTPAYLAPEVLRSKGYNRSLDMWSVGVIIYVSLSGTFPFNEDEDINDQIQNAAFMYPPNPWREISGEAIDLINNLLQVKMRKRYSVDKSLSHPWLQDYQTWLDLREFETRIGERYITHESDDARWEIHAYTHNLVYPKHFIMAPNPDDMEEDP

[8] = tested on: LASCPC-01; experiment: Annexin V/7-AAD apoptosis assay; type: cell-based
[9] = tested on: C4-2; experiment: 2D CellTiter-Glo cell viability assay; type: cell-based, human
Protocol: (§1) CellTiter-Glo® 2.0 Luminescent cell viability assay reagent was purchased from Promega and 22Rv1, LASCPC-01, C4-2, C4-2B and NCI-H660, DU-145, PC-3 and LNCap cell lines were obtained from ATCC and a clinical core facility at Huntsman Cancer Institute. […] The results of cell viability were obtained and IC50 values were calculated (see Table 5, below) showing sub-micromolar cell killing of these prostate cancer cells.

[10] = tested on: C4-2B; experiment: 2D CellTiter-Glo cell viability assay; type: cell-based
Protocol: as §1

[11] = tested on: LASCPC-01 induced neuroendocrine prostate cancer (NEPC) CDX; experiment: In vivo tumor efficacy study 2, LASCPC-01 NEPC CDX; parameters: species or system Nu/Nu (Balb/c background) mice
Protocol: Change in animal weight during a study is an additional indicator of tolerability. All animal weights are recorded. Tumor volumes were measured by digital caliper and volume was calculated using the formula [Width^2×Length]/2. All tumor volume measurements are recorded. […] Dose dependent tumor growth inhibition (TGI) was evident by observation.
50 and 80 mg/kg groups had mice drop from study starting on day 5.

[12] = molecular target: T1, human P450 isozyme 2C19 (Homo sapiens, UniProt P33261); experiment: P450 isozyme inhibition assay (baculosomes); type: in vitro ADME; conditions: P450 2C19
T1 construct: host or cells: insect cells infected with recombinant baculovirus
T1 sequence (P33261 whole entry): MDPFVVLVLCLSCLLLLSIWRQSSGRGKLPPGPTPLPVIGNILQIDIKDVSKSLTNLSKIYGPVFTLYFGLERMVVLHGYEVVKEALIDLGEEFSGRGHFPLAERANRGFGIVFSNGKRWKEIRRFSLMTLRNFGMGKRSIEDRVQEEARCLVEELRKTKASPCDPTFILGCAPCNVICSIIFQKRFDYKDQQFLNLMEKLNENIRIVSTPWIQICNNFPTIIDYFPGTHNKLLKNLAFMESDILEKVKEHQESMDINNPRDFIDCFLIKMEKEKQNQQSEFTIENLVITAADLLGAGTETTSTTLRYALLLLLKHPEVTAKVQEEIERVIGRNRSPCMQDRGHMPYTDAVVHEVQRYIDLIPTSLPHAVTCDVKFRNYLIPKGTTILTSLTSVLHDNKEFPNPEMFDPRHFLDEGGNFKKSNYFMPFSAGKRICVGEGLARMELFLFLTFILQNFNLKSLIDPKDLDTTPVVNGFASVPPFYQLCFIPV
Protocol: (§2) P450 baculosome reagents (i.e., microsomes), were prepared from insect cells infected with recombinant baculovirus containing a human P450 isozyme and a rabbit NAPDH-P450 reductase since only a single P450 isozyme is expressed over human liver microsomes (HLM).

[13] = molecular target: T2, human P450 isozyme 2D6 (Homo sapiens, UniProt P10635); experiment: P450 isozyme inhibition assay (baculosomes); type: in vitro ADME; conditions: P450 2D6
T2 construct: made in house; host or cells: insect cells infected with recombinant baculovirus
Protocol: as §2

[14] = molecular target: T3, human P450 isozyme 2C9 (Homo sapiens, UniProt P11712); experiment: P450 isozyme inhibition assay (baculosomes); type: in vitro ADME; conditions: P450 2C9
T3 construct: host or cells: insect cells infected with recombinant baculovirus
Protocol: as §2

[15] = molecular target: T4, human P450 isozyme 3A4 (Homo sapiens, UniProt P08684); experiment: P450 isozyme inhibition assay (baculosomes); type: in vitro ADME; conditions: P450 3A4
T4 construct: made in house; host or cells: insect cells infected with recombinant baculovirus
T4 sequence (P08684 whole entry): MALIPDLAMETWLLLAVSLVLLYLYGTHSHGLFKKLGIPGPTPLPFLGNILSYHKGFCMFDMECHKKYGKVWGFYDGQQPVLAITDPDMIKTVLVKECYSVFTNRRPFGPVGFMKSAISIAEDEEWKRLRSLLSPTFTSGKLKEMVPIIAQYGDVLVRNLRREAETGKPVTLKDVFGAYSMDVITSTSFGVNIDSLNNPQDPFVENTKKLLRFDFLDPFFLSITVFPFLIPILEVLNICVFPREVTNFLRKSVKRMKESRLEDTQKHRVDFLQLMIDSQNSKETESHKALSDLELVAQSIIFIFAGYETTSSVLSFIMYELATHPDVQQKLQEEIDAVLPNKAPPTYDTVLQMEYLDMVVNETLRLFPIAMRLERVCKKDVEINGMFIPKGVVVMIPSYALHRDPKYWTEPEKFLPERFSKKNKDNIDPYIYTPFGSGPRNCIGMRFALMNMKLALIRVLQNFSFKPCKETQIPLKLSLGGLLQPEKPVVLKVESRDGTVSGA
Protocol: as §2

[16] = molecular target: T5, human P450 isozyme 1A2 (Homo sapiens, UniProt P05177); experiment: P450 isozyme inhibition assay (baculosomes); type: in vitro ADME; conditions: P450 1A2
T5 construct: host or cells: insect cells infected with recombinant baculovirus
T5 sequence (P05177 whole entry): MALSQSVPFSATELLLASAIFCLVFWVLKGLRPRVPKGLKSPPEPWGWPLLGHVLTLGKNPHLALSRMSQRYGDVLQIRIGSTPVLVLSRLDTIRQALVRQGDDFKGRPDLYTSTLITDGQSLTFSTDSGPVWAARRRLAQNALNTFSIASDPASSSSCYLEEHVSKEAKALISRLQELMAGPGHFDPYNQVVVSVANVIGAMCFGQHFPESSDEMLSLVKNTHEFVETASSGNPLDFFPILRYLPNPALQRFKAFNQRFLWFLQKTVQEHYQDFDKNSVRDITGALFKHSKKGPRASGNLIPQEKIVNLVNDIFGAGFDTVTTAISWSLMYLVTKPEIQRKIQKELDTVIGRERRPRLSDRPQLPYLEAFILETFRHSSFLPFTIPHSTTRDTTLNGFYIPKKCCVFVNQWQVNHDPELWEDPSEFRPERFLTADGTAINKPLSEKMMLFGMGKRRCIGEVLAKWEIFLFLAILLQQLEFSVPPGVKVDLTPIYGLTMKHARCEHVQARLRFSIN
Protocol: as §2

[17] = molecular target: PCTK1 (Homo sapiens, UniProt Q00536); experiment: scanMAX panel and Kd follow-up; type: binding
PCTK1, sequence (Q00536 whole entry): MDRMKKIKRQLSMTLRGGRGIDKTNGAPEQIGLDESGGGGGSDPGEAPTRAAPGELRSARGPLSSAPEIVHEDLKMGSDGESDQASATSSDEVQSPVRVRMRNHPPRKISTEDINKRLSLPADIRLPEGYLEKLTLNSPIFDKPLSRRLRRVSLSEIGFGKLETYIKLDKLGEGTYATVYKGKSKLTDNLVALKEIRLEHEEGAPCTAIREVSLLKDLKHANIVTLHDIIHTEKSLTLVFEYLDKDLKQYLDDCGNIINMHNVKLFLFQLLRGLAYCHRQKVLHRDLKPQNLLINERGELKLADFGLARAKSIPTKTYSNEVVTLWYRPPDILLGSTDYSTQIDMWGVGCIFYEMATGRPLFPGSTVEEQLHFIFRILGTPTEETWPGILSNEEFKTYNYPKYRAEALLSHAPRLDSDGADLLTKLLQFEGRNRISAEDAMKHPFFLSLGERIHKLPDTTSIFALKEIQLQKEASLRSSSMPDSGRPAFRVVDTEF

[18] = molecular target: CDK9 + Cyclin T1 (Homo sapiens, UniProt P50750); experiment: cell-based
[19] = molecular target: T6, CDK2/cyclinA (Homo sapiens, UniProt P24941); experiment: DiscoveRx KINOMEscan Kd (KdELECT); type: binding
Protocol: (§3) CDKs family kinases profiling assays were performed with DiscoveRx Matrix of Kds KINOMEscan (KdELECT) and Reaction Biology using miniaturized radioisotope-based assay platform (^33P). IC50 value estimated based on the best curve fitting available.

[20] = molecular target: T7, CDK3/cyclinE (Homo sapiens, UniProt Q00526); experiment: DiscoveRx KINOMEscan Kd (KdELECT); type: binding
Protocol: as §3
Target sequence in this assay (Q00526 whole entry): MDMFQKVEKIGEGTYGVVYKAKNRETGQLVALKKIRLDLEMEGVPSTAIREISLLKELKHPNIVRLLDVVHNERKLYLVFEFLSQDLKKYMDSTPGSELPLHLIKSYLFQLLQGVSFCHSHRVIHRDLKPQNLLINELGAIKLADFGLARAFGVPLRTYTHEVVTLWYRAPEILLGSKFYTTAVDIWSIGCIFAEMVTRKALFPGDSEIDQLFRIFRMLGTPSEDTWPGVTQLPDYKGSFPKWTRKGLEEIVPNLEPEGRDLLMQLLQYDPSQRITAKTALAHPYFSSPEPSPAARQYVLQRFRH

[21] = molecular target: CDK4/cyclinD (Homo sapiens, UniProt P11802); experiment: DiscoveRx KINOMEscan Kd (KdELECT); type: binding
CDK4/cyclinD, sequence (P11802 whole entry): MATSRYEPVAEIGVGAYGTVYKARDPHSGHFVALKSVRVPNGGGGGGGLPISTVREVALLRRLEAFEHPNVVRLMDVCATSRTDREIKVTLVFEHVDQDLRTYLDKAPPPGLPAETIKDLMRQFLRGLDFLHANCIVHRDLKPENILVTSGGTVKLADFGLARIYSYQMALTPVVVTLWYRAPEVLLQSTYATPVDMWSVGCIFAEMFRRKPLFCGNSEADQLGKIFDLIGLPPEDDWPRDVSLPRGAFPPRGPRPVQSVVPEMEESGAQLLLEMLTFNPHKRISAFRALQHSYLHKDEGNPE
CDK4/cyclinD, sequence (P24385 whole entry partner): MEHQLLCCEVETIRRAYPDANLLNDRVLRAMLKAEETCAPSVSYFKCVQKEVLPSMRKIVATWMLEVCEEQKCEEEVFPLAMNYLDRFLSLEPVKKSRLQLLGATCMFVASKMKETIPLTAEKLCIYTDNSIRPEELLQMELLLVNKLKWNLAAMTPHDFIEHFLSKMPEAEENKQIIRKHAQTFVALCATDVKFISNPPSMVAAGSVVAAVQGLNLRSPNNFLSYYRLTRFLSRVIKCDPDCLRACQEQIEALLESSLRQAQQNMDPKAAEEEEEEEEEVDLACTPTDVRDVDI
Protocol: as §3

[22] = molecular target: T6, CDK2/cyclinA; experiment: CDK family kinase profiling, radioisotope-based assay (33P); type: biochemical; parameters: purchased Reaction Biology; conditions: read-out: 10-dose IC50
Protocol: as §3

[23] = molecular target: T7, CDK3/cyclinE; experiment: as above; type: biochemical; parameters: purchased Reaction Biology; conditions: read-out: 10-dose IC50
Protocol: as §3
Target sequence in this assay (Q00526 whole entry): as the sequence (Q00526 whole entry) above
Target sequence in this assay (P24864 whole entry partner): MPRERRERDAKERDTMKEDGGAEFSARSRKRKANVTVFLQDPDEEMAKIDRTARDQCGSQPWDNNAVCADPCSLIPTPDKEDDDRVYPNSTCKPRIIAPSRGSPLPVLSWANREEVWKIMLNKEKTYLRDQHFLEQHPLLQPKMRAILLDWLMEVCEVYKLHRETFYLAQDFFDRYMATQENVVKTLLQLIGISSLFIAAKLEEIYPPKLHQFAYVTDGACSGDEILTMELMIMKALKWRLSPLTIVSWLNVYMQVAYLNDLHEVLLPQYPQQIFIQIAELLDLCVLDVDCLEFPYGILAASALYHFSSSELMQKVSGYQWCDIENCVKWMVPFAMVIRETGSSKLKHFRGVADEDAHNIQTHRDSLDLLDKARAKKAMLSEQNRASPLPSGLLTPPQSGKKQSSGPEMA

## CC(C)c1c2cc(-c3ccnc(N[C@H]4CC[C@H](N)C4)n3)ccc2nn1C [Compound I-2, (1S,3S)-[3-[4-(3-isopropyl-2-methylindazol-5-yl)pyrimidin-2-yl]aminocyclopentan-1-yl]-1,3-diamine]
[1]
  bioavailability: 38%
[2]; IV 1 mg/kg
  half-life: 4.26 h
  AUC: 529 ± 200 ng·h/mL
  AUC(0-inf): 566 ± 191 ng·h/mL
  MRT: 3.82 ± 1.25 h
  clearance: 31.8 ± 10.7 mL/min/kg
  Tmax: 0.08 h
[2]; oral 3 mg/kg
  half-life: 5.81 h
  AUC: 1300 ± 233 ng·h/mL
  AUC(0-inf): 1340 ± 242 ng·h/mL
  Cmax: 373 ± 238 ng/mL
  MRT: 4.92 ± 0.97 h
  Tmax: 1 h
[2]; IV 1 mg/kg, extrapolated concentration at time zero
  C0: 312 ± 98.3 ng/mL
[2]; oral 3 mg/kg vs IV 1 mg/kg, from nominal doses and AUCinf, read-out: % F (oral bioavailability)
  bioavailability: 83 ± 22%
[2]; IV 1 mg/kg, read-out: Vd
  Vd: 11.3 ± 2.93 L/kg
[2]; IV 1 mg/kg, read-out: Vss
  Vd: 9.35 ± 2.74 L/kg
[3]
  pCDK9, pSer2 and downstream N-MYC, C-MYC and MCL-1: reduced
[4]
  bioavailability: 28%
[5]
  CDK9 downstream targets (Western blot): inhibited the CDK9 downstream targets
[6]
  colony formation: complete inhibition of colony formation
[7]; PRKD3
  Kd: 230 nM
[7]; PRKD3, 1 μM, read-out: % of control activity
  remaining binding at 1 µM: 0 to 1%
[8]; LASCPC-01
  apoptosis by Annexin V/7-AAD staining: increased apoptosis in a dose dependent manner
[8]; LASCPC-01, treated for 72 hours
  cell death: 69%
[9]; C4-2, 72 hours
  IC50: 28.2 nM
[9]; Homo sapiens, C4-2, 72 h
  IC50: 28 nM
[10]; 72 h
  IC50: 31 nM
[10]; 72 hours
  IC50: 31.9 nM
[11]; LASCPC-01, 50 mg/kg group
  tumor growth inhibition throughout the course of the study: > 80%
[11]; LASCPC-01, 50 mg/kg group, early in the study
  maximal tumor growth inhibition: ~100%
[11]; LASCPC-01, 80 mg/kg group, day 5
  maximal growth inhibition: 117%
[11]; LASCPC-01, 30, 50, 65, 80 mg/kg
  tumor growth: inhibit tumor growth in a dose dependent manner
[12]
  IC50: 28300 nM
[13]
  IC50: 100000 nM
[14]
  IC50: 50800 nM
[15]
  IC50: 31100 nM
[16]
  IC50: 29400 nM
[17]; PCTK1
  Kd: 8.2 nM
[17]; PCTK1, 1 μM, read-out: % of control activity
  remaining binding at 1 µM: 0 to 1%
[18]
  IC50: 15.6 nM
[19]
  Kd: 30 nM
[20]
  Kd: 31 nM
[21]
  Kd: 22 nM
[22]
  IC50: 17.6 nM
[23]
  IC50: 115 nM
